Values joined by “and” are separate entries in the source; they are usually repeats but may differ in a detail not shown here. Equal values may be shown once. Toxic doses and inconclusive results are not listed.
Test system: CD2F1 mice, L1210 leukemia ip, survival T/C
Assay: NCI In Vivo Anticancer Drug Screen. Data for tumor model L1210 Leukemia (intraperitoneal) in CD2F1 (CDF1) mice
Settings: higher = longer survival
How it was run: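 Antitumor effect is scored in animals hosting a serially transplanted tumor. Values compare compound-dosed animals against vehicle-only controls as a simple quotient.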

[1] = endpoint: mean survival time, dose: 25.0 mg/kg/injection, schedule: Q01DX009 (ip), vehicle: other
[2] = endpoint: mean survival time, dose: 50.0 mg/kg/injection, schedule: Q01DX009 (ip), vehicle: other
[3] = endpoint: mean survival time, dose: 100.0 mg/kg/injection, schedule: Q01DX009 (ip), vehicle: other
[4] = endpoint: mean survival time, dose: 200.0 mg/kg/injection, schedule: Q01DX009 (ip), vehicle: other
[5] = endpoint: mean survival time, dose: 400.0 mg/kg/injection, schedule: Q01DX009 (ip), vehicle: other
[6] = endpoint: mean survival time, dose: 100.0 mg/kg/injection, schedule: Q01DX009 (ip), vehicle: saline with Tween-80
[7] = endpoint: mean survival time, dose: 100.0 mg/kg/injection, schedule: Q04DX003 (ip), vehicle: saline with Tween-80
[8] = endpoint: mean survival time, dose: 200.0 mg/kg/injection, schedule: Q01DX009 (ip), vehicle: saline with Tween-80
[9] = endpoint: mean survival time, dose: 200.0 mg/kg/injection, schedule: Q04DX003 (ip), vehicle: saline with Tween-80
[10] = endpoint: mean survival time, dose: 400.0 mg/kg/injection, schedule: Q01DX009 (ip), vehicle: saline with Tween-80
[11] = endpoint: mean survival time, dose: 100.0 mg/kg/injection, schedule: Q01DX009 (ip), vehicle: saline
[12] = endpoint: mean survival time, dose: 200.0 mg/kg/injection, schedule: Q01DX009 (ip), vehicle: saline
[13] = endpoint: mean survival time, dose: 400.0 mg/kg/injection, schedule: Q01DX009 (ip), vehicle: saline
[14] = endpoint: mean survival time, dose: 100.0 mg/kg/injection, schedule: Q01DX001 (ip), vehicle: saline with Tween-80
[15] = endpoint: mean survival time, dose: 200.0 mg/kg/injection, schedule: Q01DX001 (ip), vehicle: saline with Tween-80
[16] = endpoint: mean survival time, dose: 400.0 mg/kg/injection, schedule: Q01DX001 (ip), vehicle: saline with Tween-80

`COc1ccc(CC(N)C(=O)NC2C(COP(=O)(O)OC3CC(n4cc(C)c(=O)[nH]c4=O)OC3CO)OC(n3cnc4c(N(C)C)ncnc43)C2O)cc1` (stereo unspecified) was tested, and the T/C (endpoint: median survival time, dose: 5.63 mg/kg/injection, schedule: Q01DX005 (ip), vehicle: water) was 96 % of control, the T/C (endpoint: median survival time, dose: 11.25 mg/kg/injection, schedule: Q01DX005 (ip), vehicle: water) was 96 % of control and the T/C (endpoint: median survival time, dose: 21.9 mg/kg/injection, schedule: Q01DX005 (ip), vehicle: saline) was 109 % of control. For the same molecule, the T/C (endpoint: median survival time, dose: 22.5 mg/kg/injection, schedule: Q01DX005 (ip), vehicle: water) was 94 % of control, the T/C (endpoint: median survival time, dose: 43.8 mg/kg/injection, schedule: Q01DX005 (ip), vehicle: saline) was 106 % of control and the T/C (endpoint: median survival time, dose: 45.0 mg/kg/injection, schedule: Q01DX005 (ip), vehicle: water) was 100 % of control. For the same molecule, the T/C (endpoint: median survival time, dose: 87.5 mg/kg/injection, schedule: Q01DX005 (ip), vehicle: saline) was 108 % of control, the T/C (endpoint: median survival time, dose: 90.0 mg/kg/injection, schedule: Q01DX005 (ip), vehicle: water) was 104 % of control and the T/C (endpoint: median survival time, dose: 175.0 mg/kg/injection, schedule: Q01DX005 (ip), vehicle: saline) was 102 % of control.
For `C=CCN(CC#N)CC#N`, the T/C (endpoint: mean survival time, dose: 2.5 mg/kg/injection, schedule: Q04DX003 (ip), vehicle: Klucel (hydroxypropylcellulose) (HPC)) was 106 % of control, the T/C (endpoint: mean survival time, dose: 5.0 mg/kg/injection, schedule: Q04DX003 (ip), vehicle: Klucel (hydroxypropylcellulose) (HPC)) was 97 % of control and the T/C (endpoint: mean survival time, dose: 10.0 mg/kg/injection, schedule: Q04DX003 (ip), vehicle: Klucel (hydroxypropylcellulose) (HPC)) was 105 % of control.
`CCCCCCCCCCSCC(N)C(=O)O` (stereo unspecified) was tested, and the T/C [1] was 88 % of control, the T/C [2] was 88 % of control and the T/C [3] was 94 % of control. For the same molecule, the T/C [4] was 94 % of control and the T/C [5] was 97 % of control.
`CC1(C)N=C(N)N=C(N)N1c1cccc(CCCCc2ccc(S(=O)(=O)F)cc2)c1` was tested, and the T/C (endpoint: mean survival time, dose: 25.0 mg/kg/injection, schedule: Q01DX009 (ip), vehicle: saline) was 105 % of control.
With `O=C(NCc1ccccc1)C(=O)NCc1ccccc1` the T/C (endpoint: mean survival time, dose: 100.0 mg/kg/injection, schedule: Q04DX002 (ip), vehicle: saline with Tween-80) was 90 % of control, the T/C (endpoint: mean survival time, dose: 200.0 mg/kg/injection, schedule: Q04DX002 (ip), vehicle: saline with Tween-80) was 87 % of control and the T/C (endpoint: mean survival time, dose: 400.0 mg/kg/injection, schedule: Q04DX002 (ip), vehicle: saline with Tween-80) was 90 % of control.
With `CC1CCc2c(ccc3ccccc23)C1=O` (stereo unspecified) the T/C [6] was 97 % of control, the T/C [7] was 97 % of control and the T/C [8] was 95 % of control. The T/C [9] was 97 % of control, the T/C [10] was 97 % of control and the T/C (endpoint: mean survival time, dose: 400.0 mg/kg/injection, schedule: Q04DX003 (ip), vehicle: saline with Tween-80) was 94 % of control.
`O.O=C(O)CN(CCN(CC(=O)O)CC(=O)O)CC(=O)O.[Rh+2]` was tested, and the T/C [11] was 100 % of control, the T/C [12] was 94 % of control and the T/C (endpoint: mean survival time, dose: 200.0 mg/kg/injection, schedule: Q04DX003 (ip), vehicle: saline sonified) was 95 % of control. For the same molecule, the T/C [13] was 96 % of control.
With `COc1ncc(C2OC(CO)C(O)C2O)c(OC)n1` (stereo unspecified) the T/C [1] was 100 % of control, the T/C [2] was 104 % of control and the T/C [3] was 96 % of control. The T/C [4] was 100 % of control and the T/C [5] was 96 % of control.
For `O=C1C(=O)C(Cl)=C(Cl)C(Cl)=C1Cl`, the T/C (endpoint: mean survival time, dose: 12.5 mg/kg/injection, schedule: Q01DX009 (ip), vehicle: saline with Tween-80) was 96 % of control, the T/C (endpoint: mean survival time, dose: 12.5 mg/kg/injection, schedule: Q04DX003 (ip), vehicle: saline with Tween-80) was 93 % of control and the T/C (endpoint: mean survival time, dose: 25.0 mg/kg/injection, schedule: Q01DX009 (ip), vehicle: saline with Tween-80) was 92 % of control. The T/C (endpoint: mean survival time, dose: 25.0 mg/kg/injection, schedule: Q04DX003 (ip), vehicle: saline with Tween-80) was 104 % of control and the T/C (endpoint: mean survival time, dose: 50.0 mg/kg/injection, schedule: Q04DX003 (ip), vehicle: saline with Tween-80) was 104 % of control.
With `c1coc(NC2CCCCC2)n1` the T/C [14] was 102 % of control, the T/C [15] was 102 % of control and the T/C [16] was 102 % of control.
In the case of `CCCC(C)(C)c1ccc(Cl)cc1`, the T/C (endpoint: mean survival time, dose: 50.0 mg/kg/injection, schedule: Q01DX009 (ip), vehicle: saline with Tween-80) is reported as 96 % of control, the T/C [6] is reported as 104 % of control and the T/C [8] is reported as 104 % of control.
`COC(=O)C1CSCC1=O` (stereo unspecified) was tested, and the T/C (endpoint: mean survival time, dose: 50.0 mg/kg/injection, schedule: Q01DX001 (ip), vehicle: saline with Tween-80) was 97 % of control, the T/C [14] was 97 % of control and the T/C [15] was 103 % of control.
For `O=C(/C=C/c1ccc2c(c1)OCO2)c1ccc(Cl)cc1`, the T/C [7] was 94 % of control and the T/C [9] was 89 % of control.
`O=C(Cc1ccccc1)c1ccccc1` was tested, and the T/C [14] was 102 % of control, the T/C [15] was 102 % of control and the T/C [16] was 94 % of control.
In the case of `Fc1ccc(NC2(c3nnnn3C3CCCCC3)CCN(Cc3ccccc3)CC2)cc1`, the T/C [14] is reported as 95 % of control, the T/C [15] is reported as 102 % of control and the T/C [16] is reported as 101 % of control.
For `Oc1ccccc1OCCOCCOc1ccccc1O`, the T/C (endpoint: mean survival time, dose: 50.0 mg/kg/injection, schedule: Q04DX002 (ip), vehicle: other) was 100 % of control, the T/C (endpoint: mean survival time, dose: 100.0 mg/kg/injection, schedule: Q04DX002 (ip), vehicle: other) was 88 % of control and the T/C (endpoint: mean survival time, dose: 200.0 mg/kg/injection, schedule: Q04DX002 (ip), vehicle: other) was 103 % of control. For the same molecule, the T/C (endpoint: mean survival time, dose: 400.0 mg/kg/injection, schedule: Q04DX002 (ip), vehicle: other) was 103 % of control.
In the case of `NC(CC(=O)O)C(=O)O` (stereo unspecified), the T/C [12] is reported as 97 % of control, the T/C [13] is reported as 95 % of control and the T/C (endpoint: mean survival time, dose: 800.0 mg/kg/injection, schedule: Q01DX009 (ip), vehicle: saline) is reported as 98 % of control.
In the case of `CNC(=O)Nc1cccc(OS(=O)(=O)N(C)C)c1`, the T/C [6] is reported as 92 % of control, the T/C [8] is reported as 95 % of control and the T/C [10] is reported as 95 % of control.
With `CCC1(C)CCC2C(CCC3C(C)(C(=O)OC)CCCC23C)C12SCCS2` (stereo unspecified) the T/C [14] was 86 % of control, the T/C [15] was 89 % of control and the T/C [16] was 96 % of control.
For `CC(C)C1(C)NC(=O)NC1=O` (stereo unspecified), the T/C [11] was 105 % of control, the T/C [12] was 94 % of control and the T/C [13] was 98 % of control.
With `O=c1c(-c2ccccc2)c1-c1ccccc1` the T/C [7] was 93 % of control.
For `CCS/C(SC)=C(/c1ccccc1)[P+](c1ccccc1)(c1ccccc1)c1ccccc1`, the T/C (endpoint: median survival time, dose: 1.5 mg/kg/injection, schedule: Q01DX009 (ip), vehicle: Klucel (hydroxypropylcellulose) (HPC)) was 111 % of control and the T/C (endpoint: median survival time, dose: 3.0 mg/kg/injection, schedule: Q01DX009 (ip), vehicle: Klucel (hydroxypropylcellulose) (HPC)) was 114 % of control.
`C/C(=C/c1ccccc1)C(O)C(=O)O` (stereo unspecified) was tested, and the T/C (endpoint: mean survival time, dose: 50.0 mg/kg/injection, schedule: Q04DX003 (ip), vehicle: Klucel (hydroxypropylcellulose) (HPC)) was 100 % of control and the T/C (endpoint: mean survival time, dose: 200.0 mg/kg/injection, schedule: Q04DX003 (ip), vehicle: Klucel (hydroxypropylcellulose) (HPC)) was 100 % of control.
With `CCO/N=C(\C)CSC1=NCCN1` the T/C (endpoint: mean survival time, dose: 75.0 mg/kg/injection, schedule: Q04DX003 (ip), vehicle: saline) was 102 % of control and the T/C (endpoint: mean survival time, dose: 150.0 mg/kg/injection, schedule: Q04DX003 (ip), vehicle: saline) was 100 % of control.
`CC1(CNC(=O)C(=O)NCC2(C)CO2)CO1` (stereo unspecified) was tested, and the T/C (endpoint: mean survival time, dose: 22.0 mg/kg/injection, schedule: Q01DX Z (ip), vehicle: saline) was 122 % of control, the T/C (endpoint: mean survival time, dose: 150.0 mg/kg/injection, schedule: Q01DX010 (ip), vehicle: saline) was 113 % of control and the T/C (endpoint: mean survival time, dose: 225.0 mg/kg/injection, schedule: Q01DX010 (ip), vehicle: saline) was 106 % of control.
With `COc1cccc2c1C(=O)c1c(O)c3c(c(O)c1C2=O)C[C@@](O)(/C(CO)=N/NC(=O)c1ccc(Cl)c(Cl)c1)C[C@@H]3OC1CC(N)C(O)C(C)O1` (stereo partly specified) the T/C (endpoint: mean survival time, dose: 1.0 mg/kg/injection, schedule: Q01DX009 (ip), vehicle: water) was 86 % of control, the T/C (endpoint: mean survival time, dose: 2.0 mg/kg/injection, schedule: Q01DX009 (ip), vehicle: water) was 116 % of control and 89 % of control and the T/C (endpoint: mean survival time, dose: 4.0 mg/kg/injection, schedule: Q01DX009 (ip), vehicle: water) was 92 % of control. For the same molecule, the T/C (endpoint: mean survival time, dose: 8.0 mg/kg/injection, schedule: Q01DX009 (ip), vehicle: water) was 92 % of control, the T/C (endpoint: mean survival time, dose: 16.0 mg/kg/injection, schedule: Q01DX009 (ip), vehicle: water) was 252 % of control and 97 % of control and the T/C (endpoint: mean survival time, dose: 32.0 mg/kg/injection, schedule: Q01DX009 (ip), vehicle: water) was 113 % of control and 111 % of control.
In the case of `CC1(C)C2CCC1(CS(=O)(=O)O)C(=O)C2Br.[Ag]` (stereo unspecified), the T/C (endpoint: mean survival time, dose: 100.0 mg/kg/injection, schedule: Q04DX003 (ip), vehicle: acetone) is reported as 96 % of control.

Reference: PubChem BioAssay AID256 (DTP/NCI, 2004)
